Here are results for 6 molecules from US20060223792A1, “Phenyl and pyridyl LTA4H modulators” (priority 2005, published 2006).

The subject of assay [1] is neutrophil influx (myeloperoxidase, MPO). Put plainly: Murine arachidonic acid-induced inflammation model: neutrophil influx in ear (myeloperoxidase activity). In kind it is in vivo, female Balb/c mice. The conditions noted are these: Mus musculus, read-out: % Inh. MPO. The protocol: (§1) Murine Arachidonic Acid-Induced Inflammation Model
(§2) LTA4H inhibitor compounds of the present invention were dissolved in 20% cyclodextran/H2O at a concentration of 3 mg/mL. The solutions were administered by oral gavage to female Balb/c mice weighing approximately 20 grams each (0.2 mL per mouse, 30 mg of LTA4H inhibitor compound per kg). Sixty minutes after being administered an LTA4 inhibitor, each mouse received topical application of 20 μL of arachidonic acid (100 mg/mL in acetone) to the left ear and 20 μL of acetone only to the right ear. After 3 h, the mice were sacrificed, blood was withdrawn in heparinized syringes, and 8 mm ear biopsies were taken. Ear biopsies were weighed to determine edema and then frozen at −80° C. until needed for determination of neutrophil influx.
Neutrophil influx was quantified by measuring the activity of myeloperoxidase (MPO), a neutrophil-specific enzyme. The ear biopsies were homogenized in 0.5 mL extraction buffer (0.3 M sucrose, 0.22% (w/v) hexadecyl trimethyl ammonium bromide (CTAB), and 2.5 mM citrate prepared from 0.5 M citrate stock solution (pH 5.0)). Debris was removed by centrifugation at 14000×g for 10 min. Aliquots of 10 μL of the resulting supernatant were added to wells of a microtiter plate, along with 90-μL aliquots of dilution buffer (10 mM citrate, 0.22% CTAB), followed by addition of 20 μL TMB liquid substrate system (Sigma Chemical Co.) to each sample well. The microtiter plate contents were held at rt for 1 h. The reaction was stopped by addition of 100 μL 1 M H2SO4 to each sample well, and the myeloperoxidase activity in each sample was determined from the absorbance at 405 nm. The background value from the right ear, treated only with acetone, was subtracted from that for the left ear, treated with arachidonic acid in acetone, for each animal. The percent inhibition of neutrophil influx (% lnh. MPO) by compounds of the invention was determined by comparison to animals treated identically, except that the solution administered by oral gavage was devoid of inhibitor compound.

Assay [2] has as its system ex vivo stimulated LTB4 production. Put plainly: Murine arachidonic acid-induced inflammation model: ex vivo stimulated LTB4 production in blood. The note with it: Mus musculus; 30 mg/kg oral gavage, female Balb/c mice; blood taken 3 h after arachidonic acid, stimulated ex vivo with A23187; read-out: % Inh. LTB4. The protocol:
as §1, §2
One hundred-microliter aliquots of heparinized blood were added to wells of a microtiter plate, along with equal volumes of RPMI-1640 medium, and calcium ionophore A23187 was added to each sample well (final concentration=[…]). The microtiter plate contents were incubated for 10 min at 37° C. in a humidified incubator. The reaction was terminated by centrifugation (833×g, 10 min at 4° C.). Supernatants were analyzed for LTB4 by a commercially available enzyme-linked immunoassay (Cayman Chemical Co.) in accordance with the manufacturer's instructions. The percent inhibition of ex vivo stimulated LTB4 production (% Inh. LTB4) was determined by comparison to animals treated identically except that the solution admininstered by oral gavage was devoid of inhibitor compound.

[3] abbreviates: 30 mg/kg oral gavage 60 min before topical arachidonic acid to ear, female Balb/c mice, ear biopsies after 3 h.

Read-outs that look alike come from different tables or passages of the source.

On to `CN(C(=O)Oc1ccc(OCCN2CCC(O)(c3ccccc3)CC2)cc1)c1ccccc1` [Example 40, Methyl-phenyl-carbamic acid 4-[2-(4-hydroxy-4-phenyl-piperidin-1-yl)-ethoxy]-phenyl ester], for which the inhibition in vivo at 30 mg/kg in assay [1] (po, 3 h) was 75%. In assay [2], the inhibition at 30 mg/kg stood at 79%.

For `O=C(O)C1CCN(CCc2ccc(OCCc3ccccc3)cc2)CC1` [Example 81, 1-[2-(4-Phenethyloxy-phenyl)-ethyl]-piperidine-4-carboxylic acid], in assay [1] (setting [3]), the inhibition in vivo at 30 mg/kg came out at 64%. Also, the inhibition at 30 mg/kg in assay [2] came out at 78%.

On to `O=C(O)C1CCN(Cc2ccc(OCCc3ccccc3)cc2)CC1` [Example 96, 1-(4-Phenethyloxy-benzyl)-piperidine-4-carboxylic acid], for which, in assay [1] (setting [3]), the inhibition in vivo at 30 mg/kg amounted to 95%. Also, the inhibition at 30 mg/kg in assay [2] was found to be 80%.

On to `O=C1CCCN1C1CCN(Cc2ccc(OCCc3ccccc3)cc2)CC1` [Example 99, 1-[1-(4-Phenethyloxy-benzyl)-piperidin-4-yl]-pyrrolidin-2-one], for which the inhibition in vivo at 30 mg/kg in assay [1] (setting [3]) came out at 17%. In assay [2], the inhibition at 30 mg/kg is 68%.

As for `O=C(O)C1CCN(Cc2ccc(OCCCc3ccccc3)cc2)CC1` [Example 112, 1-[4-(3-Phenyl-propoxy)-benzyl]-piperidine-4-carboxylic acid], the inhibition in vivo at 30 mg/kg in assay [1] (setting [3]) was 79%. Moreover, the inhibition at 30 mg/kg in assay [2] was 91%.

With `O=C(O)C1CCN(CCOc2ccc(OCCCc3ccccc3)cc2)CC1` [Example 117, 1-{2-[4-(3-Phenyl-propoxy)-phenoxy]-ethyl}-piperidine-4-carboxylic acid], in assay [1] (setting [3]), the inhibition in vivo at 30 mg/kg came to 62%. The inhibition at 30 mg/kg in assay [2] stood at 74%.
